# “And” between values parts separate entries of the source, which are not always exact repeats. Equal entries are not always repeated.
# Assays:
# [1] = test system: scopolamine-induced hyperactivity (muscarinic M1-mediated effect); experiment: Reduction of scopolamine-induced hyperactivity (locomotor activity chambers); format: in vivo, rat
# Experimental: The motor activity chambers utilize infrared detectors to assess movement in 3 axes. Total activity measures (vertical+horizontal activity) were collected in 15 minute intervals for 1 hour post-injection. Total activity measures were cumulated across all time intervals for statistical analysis.
# [2] = test system: male Sprague-Dawley (Charles River) rats; experiment: Radial arm maze test, scopolamine impairment; format: in vivo, rat; settings: for scopolamine impairment in delay, current and total errors / time compared to scopolamine / delay, current and total errors versus vehicle / time measures versus vehicle: first experiment (Table 2); for scopolamine impairment in delay, current and total errors / time compared to scopolamine: versus scopolamine
# Source text: The compound of Example 1 was also studied in the radial arm maze test where male Sprague-Dawley (Charles River) rats on a 23-hour food deprivation schedule were trained in an eight arm radial maze with all arms baited. Each session consisted of two maze exposures, with a time limit of 500 seconds for each exposure. After four correct choices (first exposure), each animal was removed from the maze for one hour then returned with only the remaining four arms baited (second exposure). Choice errors, consisting of delay errors (re-entry into any of the four arms chosen during the first exposure) and current errors (re-entry into any of the four arms chosen during the second exposure), as well as total errors were recorded. Durations for each exposure were also recorded. Statistical analysis were preformed using a One-Way Anova with Dunnetts T-Test comparisons.
# All compounds were solubilized in distilled water.
# [3] = test system: memory loss; settings: cited from earlier work
# [4] = test system: Alzheimer's patients and healthy elderly patients; settings: cited from earlier work; for clinical efficacy: due to side-effects, short duration of action, narrow active dose range
# [5] = target: T1, M1 muscarinic receptor (Rattus norvegicus, UniProt P08482); experiment: [3H]-Pirenzepine M1 receptor binding, rat brain tissue
# T1 construct: from tissue; host or cells: rat brain tissue
# T1 sequence (P08482 1-460): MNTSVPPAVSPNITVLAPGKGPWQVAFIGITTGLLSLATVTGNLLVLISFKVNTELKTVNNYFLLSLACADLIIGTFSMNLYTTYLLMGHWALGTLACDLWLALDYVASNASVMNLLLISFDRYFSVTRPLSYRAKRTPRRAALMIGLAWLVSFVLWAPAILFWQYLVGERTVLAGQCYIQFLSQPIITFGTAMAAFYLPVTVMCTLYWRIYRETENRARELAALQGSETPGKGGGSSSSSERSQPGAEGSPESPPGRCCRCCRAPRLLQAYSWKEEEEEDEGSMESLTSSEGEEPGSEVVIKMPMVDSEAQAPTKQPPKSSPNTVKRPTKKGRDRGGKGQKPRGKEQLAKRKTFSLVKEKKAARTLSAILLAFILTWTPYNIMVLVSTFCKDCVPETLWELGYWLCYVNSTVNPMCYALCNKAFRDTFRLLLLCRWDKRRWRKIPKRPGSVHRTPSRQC
# [6] = target: T2, M2 receptor (Rattus norvegicus, UniProt P10980); experiment: biochemical; format: binding; settings: read-out: [3H]QNB M2 IC50
# T2 sequence (P10980 1-466): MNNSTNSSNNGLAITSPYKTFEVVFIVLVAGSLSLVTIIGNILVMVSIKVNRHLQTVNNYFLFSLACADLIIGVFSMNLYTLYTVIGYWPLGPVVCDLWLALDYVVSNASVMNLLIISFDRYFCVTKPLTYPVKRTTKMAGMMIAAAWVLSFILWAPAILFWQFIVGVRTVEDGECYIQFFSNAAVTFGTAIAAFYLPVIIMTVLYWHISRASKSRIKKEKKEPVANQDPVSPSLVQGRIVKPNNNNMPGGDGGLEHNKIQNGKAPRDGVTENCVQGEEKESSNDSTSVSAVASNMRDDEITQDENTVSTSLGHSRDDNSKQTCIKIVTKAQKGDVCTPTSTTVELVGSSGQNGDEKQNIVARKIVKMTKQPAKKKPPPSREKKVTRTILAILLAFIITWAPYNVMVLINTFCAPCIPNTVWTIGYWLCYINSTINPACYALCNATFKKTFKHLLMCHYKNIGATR
# [7] = Table 2, arecoline 10.0 mg/kg i.p., scopolamine-impaired
# [8] = Table 2, scopolamine HBr 0.3 mg/kg s.c. alone
# [9] = Table 3, scopolamine HBr 0.3 mg/kg s.c. alone
# [10] = Table 2, physostigmine 0.01 mg/kg i.p., scopolamine-impaired
# [11] = Table 3, 1.0 mg/kg i.p. + scopolamine HBr 0.3 mg/kg s.c.
# [12] = Table 3, 3.0 mg/kg i.p. + scopolamine HBr 0.3 mg/kg s.c.
# [13] = Table 3, 10.0 mg/kg i.p. + scopolamine HBr 0.3 mg/kg s.c.
molecule,measurement,setting,value
"COC(=O)C1=CCCN(C)C1 [Arecoline, arecoline]",dose active in scopolamine-induced hyperactivity test,[1]; route not stated,about 5.4 mg/kg
same,"Mean Errors, Current",[2]; [7],0.75
same,"Mean Errors, Delay",[2]; [7],1.50
same,"Mean Errors, Total",[2]; [7],2.25
same,"Mean Time, Current",[2]; [7],2.32 min
same,"Mean Time, Delay",[2]; [7],1.50 min
same,"Mean Time, Total",[2]; [7],4.06 min
same,"scopolamine impairment in delay, current and total errors",[2],"significant reduction in scopolamine impairment in delay, current and total errors"
same,time compared to scopolamine,[2],no significant time reduction versus scopolamine
same,"delay, current and total errors versus vehicle",[2],did not
same,time measures versus vehicle,[2],significant time increase versus vehicle
same,"reversal of muscarinic antagonist-induced memory deficit, rats",[3]; rats,can be reversed
same,clinical efficacy,[4],neither physostigmine nor arecoline have clinical efficacy
"CN1[C@@H]2C[C@@H](OC(=O)[C@H](CO)c3ccccc3)C[C@H]1[C@@H]1O[C@@H]12 [Scopolamine, scopolamine]",total activity measure,[1]; scopolamine 1.7 mg/kg s.c. alone,significant increase
same,"Mean Errors, Current",[2]; [8],3.63
same,"Mean Errors, Total",[2]; [8],6.38
same,"Mean Time, Current",[2]; [8],2.78 min
same,"Mean Time, Delay",[2]; [8],2.28 min
same,"Mean Time, Total",[2]; [8],5.27 min
same,"Mean Errors, Current",[2]; [9],3.57
same,"Mean Errors, Total",[2]; [9],5.72
same,"Mean Time, Current",[2]; [9],2.90 min
same,"Mean Time, Delay",[2]; [9],2.01 min
same,"Mean Time, Total",[2]; [9],5.14 min
same,"delay, current and total errors versus vehicle",[2],"significant increase in delay, current and total errors versus vehicle"
same,time measures versus vehicle,[2],increased all time measures compared to vehicle
same,total errors compared to vehicle,[2]; second experiment (Table 3),significantly increased total errors compared to vehicle
same,time measures compared to vehicle,"[2]; second experiment (Table 3), scopolamine alone",increased all time measures compared to vehicle
same,memory loss induced,"[3]; normal humans and animals (cat, rat, monkey)",Memory loss
"CNC(=O)Oc1ccc2c(c1)[C@]1(C)CCN(C)[C@@H]1N2C [Physostigmine, physostigmine]","Mean Errors, Current",[2]; [10],0.88
same,"Mean Errors, Delay",[2]; [10],1.13
same,"Mean Errors, Total",[2]; [10],2.00
same,"Mean Time, Current",[2]; [10],2.01 min
same,"Mean Time, Delay",[2]; [10],1.14 min
same,"Mean Time, Total",[2]; [10],3.25 min
same,"scopolamine impairment in delay, current and total errors",[2],"significant reduction in scopolamine impairment in delay, current and total errors"
same,time compared to scopolamine,[2],significant time reduction compared to scopolamine in both delay time (first exposure) and total time
same,"delay, current and total errors versus vehicle",[2],did not
same,"reversal of muscarinic antagonist-induced memory deficit, humans and monkeys",[3]; humans and monkeys,can be reversed
same,clinical efficacy,[4],neither physostigmine nor arecoline have clinical efficacy
lecithin,improvement on cognitive tests,[4]; Alzheimer's patients and healthy elderly patients,No significant improvement
"CCN(CC)CCCNc1nnc(C)c2c1cc1ccccn12 [Example 1, 1-[(3'-Diethylaminopropyl)amino]-4-methylpyridazino[4,5-b]indolizine]",IC50,"[5]; [3H]pirenzepine, rat brain tissue",98 nM
same,M2/M1,[5]; ratio of M2 IC50 to M1 IC50,42
same,IC50,[6],4100 nM
same,total activity versus vehicle-only controls,"[1]; 30 and 54 mg/kg i.p., scopolamine 1.7 mg/kg s.c.",did not differ from vehicle-only controls
same,dose active in reducing scopolamine-induced hyperactivity,"[1]; i.p., scopolamine 1.7 mg/kg s.c., rats",30 mg/kg and 54 mg/kg
same,total time compared to scopolamine,"[2]; 1.0 mg/kg i.p., Table 3",reduction in time impairment compared to scopolamine
same,delay time (first exposure) versus vehicle,"[2]; 3.0 mg/kg i.p., Table 3",significantly increased
same,"current and total errors, dose trend","[2]; 1, 3, 10 mg/kg i.p., Table 3",definite dose-related decrease in scopolamine impairment
same,"delay errors, dose trend","[2]; 1, 3, 10 mg/kg i.p., Table 3",no dose-related trend
same,total time versus vehicle,"[2]; 3.0 and 10 mg/kg i.p., Table 3",significantly increased
same,"Mean Errors, Current",[2]; [11],2.00
same,"Mean Errors, Delay",[2]; [11],1.83
same,"Mean Errors, Total",[2]; [11],3.67
same,"Mean Time, Current",[2]; [11],1.83 min
same,"Mean Time, Delay",[2]; [11],1.03 min
same,"Mean Time, Total",[2]; [11],2.99 min
same,"Mean Errors, Current",[2]; [12],1.13
same,"Mean Errors, Delay",[2]; [12],2.38
same,"Mean Errors, Total",[2]; [12],3.50
same,"Mean Time, Current",[2]; [12],2.92 min
same,"Mean Time, Delay",[2]; [12],1.95 min
same,"Mean Time, Total",[2]; [12],4.96 min
same,"Mean Errors, Current",[2]; [13],0.75
same,"Mean Errors, Delay",[2]; [13],2.00
same,"Mean Errors, Total",[2]; [13],2.75
same,"Mean Time, Current",[2]; [13],3.32 min
same,"Mean Time, Delay",[2]; [13],1.63 min
same,"Mean Time, Total",[2]; [13],5.15 min
same,impairment caused by scopolamine,"[2]; all doses tested (1, 3, 10 mg/kg i.p.), Table 3",reduced the impairment caused by scopolamine
same,current time (second exposure) versus vehicle,"[2]; all groups, Table 3",significantly increased
same,cognitive impairment due to cholinergic hypofunction,[2]; overall conclusion,can reduce cognitive impairment
